Measurements reported in patent US20230263822A1, “MODULATION OF FACTOR 11 EXPRESSION” (Ionis Pharmaceuticals, Inc., priority 2008, published 2023).
pIC50: −log10 of the molar value. Strand notation (5' to 3'): a small letter for the sugar, then the base; units joined by * are phosphorothioate-linked, units joined directly phosphodiester-linked; [ ] holds rarer units or linkages, { } end groups; capitals alone tell only the bases. e = 2'-O-(2-methoxyethyl) (MOE); [5mC] = 5-methylcytosine; d = 2'-deoxy (DNA)

Tests used:
[1] = test system: human Factor 11 mRNA; assay: Antisense inhibition of human Factor 11 in HepG2 cells, lipofectin, 75 nM (Example 1); type: cell-based; settings: 75 nM antisense oligonucleotide, ~24 h, relative to untreated control cells, gapmers targeted to SEQ ID NO: 1
Outline: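 HepG2 cells transfected via lipofectin with 75 nM antisense oligonucleotide (5-10-5 MOE gapmers, 20-mers, phosphorothioate, 5-methylcytidines), treated ~24 h. Factor 11 mRNA quantified by real-time PCR, normalised to RIBOGREEN total RNA; percent inhibition versus untreated cells.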

[2] = test system: human Factor 11 mRNA; assay: Dose-dependent inhibition of human Factor 11 in HepG2 cells, lipofectin 9.375-75 nM (Example 4); type: cell-based; settings: for percent inhibition of Factor 11 at 9.375 nM / percent inhibition of Factor 11 at 18.75 nM / percent inhibition of Factor 11 at 37.5 nM / percent inhibition of Factor 11 at 75 nM: relative to untreated control cells
Outline: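 HepG2 cells transfected via lipofectin with antisense oligonucleotide at 9.375, 18.75, 37.5 or 75 nM for about 16 h. Factor 11 mRNA quantified by real-time RT-PCR (primer probe set RTS 2966) and normalized to total RNA (RIBOGREEN). Results expressed as percent inhibition versus untreated cells.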

[3] = test system: human Factor 11 mRNA; assay: Antisense inhibition of human Factor 11 in HepG2 cells by microwalk gapmers, lipofectin, 75 nM (Example 3); type: cell-based
Outline: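 HepG2 cells (10,000/well) were transfected via lipofectin with 75 nM 20-mer MOE gapmers (phosphorothioate, 5-methyl-C) for about 24 h. Factor 11 mRNA was measured by qRT-PCR, normalized to RIBOGREEN total RNA, and given as percent inhibition versus untreated cells.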

[4] = test system: human Factor 11 mRNA; assay: Dose-dependent inhibition of human Factor 11 in HepG2 cells, electroporation 0.7-20 uM (Example 4); type: cell-based; settings: for percent inhibition of Factor 11 at 0.7 μM / percent inhibition of Factor 11 at 2.2 μM / percent inhibition of Factor 11 at 6.7 μM / percent inhibition of Factor 11 at 20 μM: relative to untreated control cells
Outline: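 HepG2 cells electroporated with antisense gapmers at 0.7, 2.2, 6.7 and 20 μM, treated ~16 h. Factor 11 mRNA quantified by qRT-PCR (primer probe set RTS 2966), normalised to RIBOGREEN total RNA; expressed as percent inhibition versus untreated control cells.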

[5] = test system: human Factor 11 mRNA; assay: Dose-dependent antisense inhibition of human Factor 11 in HepG2 cells, lipofectin 9.375-150 nM (Example 2); type: cell-based; settings: ~16 h
Procedure: Cells were plated at a density of 10,000 cells per well and transfected using lipofectin reagent with 9.375 nM, 18.75 nM, 37.5 nM, 75 nM, and 150 nM concentrations of antisense oligonucleotide, as specified in Table 3. After a treatment period of approximately 16 hours, RNA was isolated from the cells and Factor 11 mRNA levels were measured by quantitative real-time PCR. Human Factor 11 primer probe set RTS 2966 (forward sequence: […], incorporated herein as SEQ ID NO: 3; reverse sequence: […], incorporated herein as SEQ ID NO: 4; probe sequence: TTGTCTACTGAAGCACACCCAAACAGGGAX, incorporated herein as SEQ ID NO: 5) was used to measure mRNA levels. Factor 11 mRNA levels were adjusted according to total RNA content, as measured by RIBOGREEN. Results are presented as percent inhibition of Factor 11, relative to untreated control cells.

[6] = test system: human Factor 11 mRNA; assay: Antisense inhibition of human Factor 11 in HepG2 cells, electroporation, 8,000 nM (Example 30); type: cell-based; settings: electroporation, 8,000 nM antisense oligonucleotide
Procedure: These microwalk gapmers were tested in vitro. Cultured HepG2 cells at a density of 20,000 cells per well were transfected using electroporation with 8,000 nM antisense oligonucleotide. After a treatment period of approximately 24 hours, RNA was isolated from the cells and Factor 11 mRNA levels were measured by quantitative real-time PCR. Factor 11 mRNA levels were adjusted according to total RNA content, as measured by RIBOGREEN. Results are presented as percent inhibition of Factor 11, relative to untreated control cells.
The chimeric antisense oligonucleotides in Table 44 were designed as 5-10-5 MOE, 5-8-5 and 6-8-6 MOE gapmers. The first two listed gapmers in Table 44 are the original gapmers (ISIS 416850 and ISIS 416858) from which ISIS 445493-445543 were designed via microwalk, and are designated by an asterisk. The 5-10-5 gapmers are 20 nucleotides in length, wherein the central gap segment is comprised of ten 2′-deoxynucleotides and is flanked on both sides (in the 5′ and 3′ directions) by wings comprising five nucleotides each. The 5-8-5 gapmers are 18 nucleotides in length, wherein the central gap segment is comprised of eight 2′-deoxynucleotides and is flanked on both sides (in the 5′ and 3′ directions) by wings comprising five nucleotides each. The 6-8-6 gapmers are 20 nucleotides in length, wherein the central gap segment is comprised of eight 2′-deoxynucleotides and is flanked on both sides (in the 5′ and 3′ directions) by wings comprising six nucleotides each. For each of the motifs (5-10-5, 5-8-5 and 6-8-6), each nucleotide in the 5′ wing segment and each nucleotide in the 3′ wing segment has a 2′-MOE modification. The internucleoside linkages throughout each gapmer are phosphorothioate (P=S) linkages. All cytidine residues throughout each gapmer are 5-methylcytidines. “Human Target start site” indicates the 5′-most nucleotide to which the gapmer is targeted in the human sequence. “Human Target stop site” indicates the 3′-most nucleotide to which the gapmer is targeted in the human sequence. Each gapmer listed in Table 44 is targeted to SEQ ID NO: 1 (GENBANK Accession No. NM_000128.3). Each gapmer is Table 44 is also fully cross-reactive with the rhesus monkey Factor 11 gene sequence, designated herein as SEQ ID NO: 274 (exons 1-15 GENBANK Accession No. NW_001118167.1). ‘Rhesus monkey start site’ indicates the 5′-most nucleotide to which the gapmer is targeted in the rhesus monkey sequence. ‘Rhesus monkey stop site’ indicates the 3′-most nucleotide to which the gapmer is targeted to the rhesus monkey sequence.

[7] = test system: human Factor 11 mRNA; assay: Dose-dependent inhibition of human Factor 11 in HepG2 cells, electroporation 123.46-10,000 nM (Example 31); type: cell-based; settings: for Percent inhibition of Factor 11 mRNA at 123.47 nM / Percent inhibition of Factor 11 mRNA at 370.37 nM / pIC50: electroporation; for Percent inhibition of Factor 11 mRNA at 123.47 nM / Percent inhibition of Factor 11 mRNA at 370.37 nM / Percent inhibition of Factor 11 mRNA at 1,111.11 nM / Percent inhibition of Factor 11 mRNA at 3,333.33 nM / Percent inhibition of Factor 11 mRNA at 10,000.0 nM: approx. 16 hours, relative to untreated control cells; for Percent inhibition of Factor 11 mRNA at 1,111.11 nM: electroporation, 1,111.11 nM; for Percent inhibition of Factor 11 mRNA at 3,333.33 nM: electroporation, 3,333.33 nM; for Percent inhibition of Factor 11 mRNA at 10,000.0 nM: electroporation, 10,000.0 nM; for pIC50: Factor 11 mRNA expression
Procedure: Cells were plated at a density of 20,000 cells per well and transfected using electroporation with 123.46 nM, 370.37 nM, 1,111.11 nM, 3,333.33 nM and 10,000 nM concentrations of antisense oligonucleotide, as specified in Table 45. After a treatment period of approximately 16 hours, RNA was isolated from the cells and Factor 11 mRNA levels were measured by quantitative real-time PCR. Human Factor 11 primer probe set RTS 2966 was used to measure mRNA levels. Factor 11 mRNA levels were adjusted according to total RNA content, as measured by RIBOGREEN. Results are presented as percent inhibition of Factor 11, relative to untreated control cells.

[8] = Viscosity of ISIS antisense oligonucleotides, micro-viscometer at 25 °C (Example 47); type: physicochemical; settings: for Concentration: concentration of the viscosity sample, UV reading at 260 nM at 85° C.; for Viscosity: in water, micro-viscometer at 25° C., at the concentration of the same line
Procedure: The viscosity of antisense oligonucleotides targeting human Factor 11 was measured with the aim of screening out antisense oligonucleotides which have a viscosity more than 40 cP at a concentration of 165-185 mg/mL.
ISIS oligonucleotides (32-35 mg) were weighed into a glass vial, 120 μL of water was added and the antisense oligonucleotide was dissolved into solution by heating the vial at 50° C. Part of (75 μL) the pre-heated sample was pipetted to a micro-viscometer (Cambridge). The temperature of the micro-viscometter was set to 25° C. and the viscosity of the sample was measured. Another part (20 μL) of the pre-heated sample was pipetted into 10 mL of water for UV reading at 260 nM at 85° C. (Cary UV instrument).

[9] = HepG2, lipofectin, ~24 h, gapmers targeted to nucleobases 656 to 704 of SEQ ID NO: 1

Substance	% inhibition [1] [%]	pIC50 [2]	percent inhibition of Factor 11 at 9.375 nM [2] [%]	percent inhibition of Factor 11 at 18.75 nM [2] [%]	percent inhibition of Factor 11 at 37.5 nM [2] [%]	percent inhibition of Factor 11 at 75 nM [2] [%]	pIC50 [4]	percent inhibition of Factor 11 at 0.7 μM [4] [%]	percent inhibition of Factor 11 at 2.2 μM [4] [%]	percent inhibition of Factor 11 at 6.7 μM [4] [%]	percent inhibition of Factor 11 at 20 μM [4] [%]	percent inhibition of Factor 11 at 9.375 nM [5] [%]	percent inhibition of Factor 11 at 18.75 nM [5] [%]	percent inhibition of Factor 11 at 37.5 nM [5] [%]	percent inhibition of Factor 11 at 75 nM [5] [%]	percent inhibition of Factor 11 at 150 nM [5] [%]	pIC50 [5]	Percent inhibition of human Factor 11 mRNA levels [6] [%]	Concentration [8] [mg/mL]	Viscosity [8] [cP]	further results
413467 (antisense eG*eG*eT*e[5mC]*e[5mC]*dA*d[5mC]*dA*dT*dA*dA*dA*dT*dG*dT*e[5mC]*eT*eT*eT*eG) [compound 413467]	91	7.70	35	51	62	69	5.38	5	31	65	89	2	35	49	61	47	7.37	–	–	–	% inhibition [3, 9]: 92%
412203 (antisense eA*eA*eT*eG*eT*d[5mC]*dT*dT*dT*dG*dT*dT*dG*d[5mC]*dA*eA*eG*e[5mC]*eG*e[5mC]) [compound 412203]	91	7.62	33	40	62	74	5.57	11	60	70	91	29	15	61	77	82	7.48	–	–	–	% inhibition [3, 9]: 97%
413476 (antisense eT*eT*eG*eA*eG*dA*dT*dT*d[5mC]*dT*dT*dT*dG*dG*dG*e[5mC]*e[5mC]*eA*eT*eT) [compound 413476]	88	7.68	24	58	62	77	6.05	40	69	88	93	26	44	64	73	82	7.60	–	–	–	% inhibition ([3]; HepG2 cells, lipofectin, gapmers targeted to nucleobases 1062 to 1091 of SEQ ID NO: 1): 93%
445498 (antisense eG*eG*eT*eG*e[5mC]*eA*d[5mC]*dA*dG*dT*dT*dT*d[5mC]*dT*eG*eG*e[5mC]*eA*eG*eG) [compound 445498]	–	–	–	–	–	–	–	–	–	–	–	–	–	–	–	–	–	83	157	21	Percent inhibition of Factor 11 mRNA at 123.47 nM [7]: 3%; Percent inhibition of Factor 11 mRNA at 370.37 nM [7]: 1%; Percent inhibition of Factor 11 mRNA at 1,111.11 nM [7]: 27%; Percent inhibition of Factor 11 mRNA at 3,333.33 nM [7]: 50%; Percent inhibition of Factor 11 mRNA at 10,000.0 nM [7]: 58%; pIC50 [7]: 5.32
445504 (antisense eG*eG*e[5mC]*eA*eT*eT*dG*dG*dT*dG*d[5mC]*dA*d[5mC]*dA*eG*eT*eT*eT*e[5mC]*eT) [compound 445504]	–	–	–	–	–	–	–	–	–	–	–	–	–	–	–	–	–	87	139	20	Percent inhibition of Factor 11 mRNA at 123.47 nM [7]: 8%; Percent inhibition of Factor 11 mRNA at 370.37 nM [7]: 20%; Percent inhibition of Factor 11 mRNA at 1,111.11 nM [7]: 38%; Percent inhibition of Factor 11 mRNA at 3,333.33 nM [7]: 53%; Percent inhibition of Factor 11 mRNA at 10,000.0 nM [7]: 68%; pIC50 [7]: 5.57
445509 (antisense e[5mC]*eG*eG*eA*e[5mC]*eG*dG*d[5mC]*dA*dT*dT*dG*dG*dT*eG*e[5mC]*eA*e[5mC]*eA*eG) [compound 445509]	–	–	–	–	–	–	–	–	–	–	–	–	–	–	–	–	–	84	167	>100	–
445530 (antisense eG*e[5mC]*eA*eT*eT*dG*dG*dT*dG*d[5mC]*dA*d[5mC]*dA*eG*eT*eT*eT*e[5mC]) [compound 445530]	–	–	–	–	–	–	–	–	–	–	–	–	–	–	–	–	–	83	177	25	–
445513 (antisense eG*e[5mC]*eA*eG*e[5mC]*eG*dG*dA*d[5mC]*dG*dG*d[5mC]*dA*dT*eT*eG*eG*eT*eG*e[5mC]) [compound 445513]	–	–	–	–	–	–	–	–	–	–	–	–	–	–	–	–	–	85	167	34	–
